Experimental data reported in US20220339150A1, “ENDOCANNABINOID SYSTEM-TARGETING PRODRUGS AND THERAPEUTIC USES THEREOF” (priority 2021, published 2022).
“Also recorded” adds a separate entry of the source. Where two headings read alike, the source gives them in different places.

How the values were obtained:
[1] = tested on: reconstructed human oral buccal epithelium cells (SkinEthic HOE, TR146 cells); assay: In vitro buccal permeability (SkinEthic human oral epithelium); format: in vitro ADME; conditions: for Flux (buccal) / Flux compared with parent cannabinoid / Species making up the buccal flux / formation of parent cannabinoid: Table 4; for Flux (buccal): suspension ca. 2 mg/ml in 5% EtOH/phosphate buffer pH 6.8, 37° C., receiver 15% HP-β-cyclodextrin; for Flux compared with parent cannabinoid: buccal flux relative to parent; for Species making up the buccal flux / formation of parent cannabinoid / Species making up the buccal flux (parent vs intact prodrug): remark in flux cell; for Species making up the buccal flux (parent vs intact prodrug): Table 2; for Buccal permeation compared with parent cannabinoid (in words): 5% ethanol suspension
Protocol: The in vitro permeability studies were carried out in commercial reconstructed human oral buccal epithelium cells (SkinEthic™ human oral epithelium). The SkinEthic™ HOE model is composed of TR146 cells (derived from a squamous cell carcinoma of the buccal mucosa) cultivated on an inert polycarbonate filter at the air-liquid interface in a chemically defined medium. This model forms an epithelial tissue devoid of stratum corneum, resembling histologically to the mucosa of the oral cavity.
Upon receiving the cells, each insert (0.5 cm^2 or 0.33 cm^2) was placed in a plate containing 800 μL fresh medium at room temperature. The culture dishes were placed in the incubator at 37° C., 5% CO2, and saturated humidity overnight. Next day, the inserts were placed in a plate containing 800 μL 15% HP-β-cyclodextrin in H2O. The prodrugs were dissolved in 100% EtOH (5% (V/V) final conc.), and then sodium phosphate buffer solution (50 mM, pH 6.8, isotonic, 37° C.) was added (95% (V/V) final conc.). 400 μL of the prodrugs were applied as suspensions (ca. 2 mg/ml). The plates were stirred gently at 37° C. At appropriate intervals, the receptor compartment was sampled (100 μL) and replenished with fresh […] solution each time. The samples were mixed with 100 μL of MeOH, and analyzed for drug (both the parent cannabinoid and the prodrug) by HPLC-MS.
The buccal flux-values for the rate of delivery of drugs were determined from Fick's law of diffusion.

[2] = Metabolic stability in human liver microsomes; format: in vitro ADME
Protocol: The prodrugs were incubated with the human liver microsomes at 37° C. as an indication of the susceptibility of prodrugs to undergo bioconversion in the liver. The reactions were initiated by adding 1.5 μL of the prodrug stock solution (10 mg/mL in DMSO) to a preheated solution consisting of 748.5 μL potassium phosphate buffer solution (20 mM, pH 7.4, ionic strength 0.5), 200 μL NADPH, and 50 μLhuman liver microsomes (mixed gender, 0.5 ml at 20 mg/mL). The solutions were stirred at a constant temperature of 37° C. At appropriate intervals, 50 μLof samples were mixed with 100 μL of ice-cold MeOH. After immediate mixing and centrifugation (5 min at 14.000 rpm), the resulting clear supernatant was analyzed for the remaining prodrug by HPLC.

[3] = Stability in 80% human plasma (serum); format: in vitro ADME; conditions: Table 5; 80% human serum (pH 7.4) at 37° C.
Protocol: The rates of the degradation of the prodrugs were determined in 80% human serum (pH 7.4) at 37° C. as an indication of the susceptibility of prodrugs to undergo bioconversion after reaching the circulation. The reactions were initiated by adding the first 10 μL of the prodrug stock solution (10 mg/mL in DMSO) to 200 μL preheated sodium phosphate buffer solution (50 mM, pH 7.4, ionic strength 0.5), and then adding 800 μL preheated human serum. The solutions were stirred at a constant temperature of 37° C. At appropriate intervals, 50 μL of samples were mixed with 150 μL of ice-cold MeOH. After immediate mixing and centrifugation (5 min at 14.000 rpm), the resulting clear supernatant was analyzed for the remaining prodrug by HPLC.

[4] = Stability in aqueous solutions (sodium phosphate buffer, 37° C.); format: physicochemical; conditions: Table 3 footnote e
Protocol: […] The solutions of prodrugs were prepared by adding 10 μL of stock solution (10 mg/mL in DMSO) to the preheated buffer. The solutions were stirred at a constant temperature of 37° C. At appropriate intervals, 75 μL of samples were mixed with 75 μL of MeOH and analyzed for remaining prodrug by HPLC.
The pseudo-first-order rate constants (kobs) and half-lives (t1/2) for the degradation of the prodrugs were determined from the linear slopes of the plots by taking the logarithm of the remaining prodrug over time. Equations: kobs=slope/−2.303 and t1/2=ln2/kobs.

[5] = both sexes, human, microsomes, pH 7.4, Table 5, 37° C., NADPH, read-out: Half-life in human liver microsomes (single determinations) (converted)
[6] = both sexes, human, microsomes, pH 7.4, Table 5, average of determinations, read-out: Half-life in human liver microsomes (avg.) (converted)
[7] = both sexes, human, microsomes, pH 7.4, Table 5

## CCCCCc1cc(O)c2c(c1)OC(C)(CCC=C(C)C)C=C2 (stereo not shown) [CBC, Cannabichromene, reference compound]
[1]
  Flux (buccal): 27.87 ± 2.46 nmol/cm^2/h
[2]; [5]
  half-life: 116 min
[2]; [6]
  half-life: 112 min
[2]; [7]
  microsomal CLint: 6.21 µL/min/mg

## CCCCCc1cc(OC(=O)N2CCN(C)CC2)c2c(c1)OC(C)(CCC=C(C)C)C=C2 (stereo not shown) [CBCp1, 2-methyl-2-(4-methylpent-3-en-1-yl)-7-pentyl-2H-chromen-5-yl4-methylpiperazine-1-carboxylate]
[1]
  Flux compared with parent cannabinoid: No improvement
  Species making up the buccal flux / formation of parent cannabinoid: NO significant formation of CBC
  Flux (buccal): 15.88 ± 0.70 (prodrug) nmol/cm^2/h
[2]; Table 5, 37° C., NADPH
  Half-life in human liver microsomes (single determinations): 3.13 h
[2]; [5]
  half-life at 15 µg/mL: 251 min
[2]; [6]
  half-life at 15 µg/mL: 219 min
[3]
  Half-life in serum: stable for 6 hrs

## CCCCCc1cc(OC(=O)N2CCNCC2)c2c(c1)OC(C)(CCC=C(C)C)C=C2 (stereo not shown) [CBCp3, 2-methyl-2-(4-methylpent-3-en-1-yl)-7-pentyl-2H-chromen-5-yl piperazine-1-carboxylate]
[1]
  Flux compared with parent cannabinoid: No improvement
  Species making up the buccal flux / formation of parent cannabinoid: NO significant formation of CBC
  Flux (buccal): 5.74 ± 0.51 (prodrug) nmol/cm^2/h
[2]; [6]
  half-life at 15 µg/mL: 896 min
[3]
  Half-life in serum: stable for 6 hrs

## C=C(C)[C@@H]1CCC(C)=C[C@H]1c1c(O)cc(CCCCC)cc1OC(=O)N1CCCCC1 [CBDp17, (1′R,2′R)-6-hydroxy-5′-methyl-4-pentyl-2′-(prop-1-en-2-yl)-1′,2′,3′,4′-tetrahydro-[1,1′-biphenyl]-2-yl piperidine-1-carboxylate]
[1]
  Species making up the buccal flux (parent vs intact prodrug): only intact prodrug

## C=C(C)[C@@H]1CCC(C)=C[C@H]1c1c(OC(=O)N2CCCCC2)cc(CCCCC)cc1OC(=O)N1CCCCC1 [CBDp18, (1′R,2′R)-5′-methyl-4-pentyl-2′-(prop-1-en-2-yl)-1′,2′,3′,4′-tetrahydro-[1,1′-biphenyl]-2,6-diyl bis(piperidine-1-carboxylate)]
[1]
  Species making up the buccal flux (parent vs intact prodrug): only intact prodrug

## C=C(C)[C@@H]1CCC(C)=C[C@H]1c1c(O)cc(CCCCC)cc1OC(=O)N1CCNCC1 [CBDp21, (1′R,2′R)-6-hydroxy-5′-methyl-4-pentyl-2′-(prop-1-en-2-yl)-1′,2′,3′,4′-tetrahydro-[1,1′-biphenyl]-2-yl piperazine-1-carboxylate]
[1]
  Buccal permeation compared with parent cannabinoid (in words): better than that of CBD
  Species making up the buccal flux (parent vs intact prodrug): only intact prodrug

## C=C(C)[C@@H]1CCC(C)=C[C@H]1c1c(OC(=O)C2CCNC2)cc(CCCCC)cc1OC(=O)C1CCNC1 (stereo partly drawn) [CBDp24, (1′R,2′R)-5′-methyl-4-pentyl-2′-(prop-1-en-2-yl)-1′,2′,3′,4′-tetrahydro-[1,1′-biphenyl]-2,6-diyl bis(pyrrolidine-3-carboxylate)]
[1]
  Buccal permeation compared with parent cannabinoid (in words): better than that of CBD; also recorded: superior when compared to CBD and other prodrugs
  Species making up the buccal flux (parent vs intact prodrug): mostly intact
[4]
  Stability in standard and aqueous solutions (in words): ^e Could not be determined due to fast degradation in standard and aqueous solutions,

## CCCCCc1cc(O)c(C/C=C(\C)CCC=C(C)C)c(O)c1 [CBG, Cannabigerol, reference compound]
[2]; both sexes, human, microsomes, pH 7.4
  microsomal CLint at 15 µg/mL: 7.18 µL/min/mg
[2]; both sexes, human, microsomes, pH 7.4, Half-life in human liver microsomes (avg.)
  half-life at 15 µg/mL: 96.6 min
[2]; both sexes, human, microsomes, pH 7.4, Half-life in human liver microsomes (single determinations)
  half-life at 15 µg/mL: 107 min
[2]; human, microsomes
  Kobs (based on microsomes Half-life): 0.43

## CCCCCc1cc(O)c2c(c1)OC(C)(C)[C@@H]1CCC(C)=C[C@@H]21 [THC, Δ9-Tetrahydrocannabinol, reference compound]
[1]
  Flux (buccal): 19.65 ± 0.36 nmol/cm^2/h
[2]; [5]
  half-life: 10.2 min
[2]; [6]
  half-life: 10.8 min
[2]; [7]
  microsomal CLint: 64.2 µL/min/mg
